This is an account of results in US11807895B2, “High-throughput drug and genetic assays for cellular transformation” (THE BROAD INSTITUTE, INC., priority 2015, dated 2023).

Entries after “also recorded” stand apart in the source; their conditions may differ. Structures can show the parent of a compound that is named as a salt.

The subject of test [1] is fibroblasts transformed with TERT, SV40 T-antigen, and H-RAS. Description: GILA (growth in low attachment) drug screen, ATP/CellTiter-Glo viability. To be noted: 633 kinase inhibitors and FDA-approved drugs screened at 30 μM or 10 μM, 5 days. The class given is cell-based, human. Background: In ATP-based viability assays light output follows the ATP content of the culture.
Description: To identify drugs specifically inhibiting the oncogenic state of fibroblasts transformed with TERT, SV40 T-antigen, and H-RAS (Hahn W C, et al. (1999) Creation of human tumour cells with defined genetic elements. Nature 400:464-468.), GILA was used as a primary screen and growth on standard high-attachment plates as a counterscreen.
Transformed fibroblast cells were maintained as subconfluent monolayers, trypsinized, and seeded in 96-well plates (for analytical assays, FIG. 14) or in 384-well white plates (for screens, FIG. 3). The cell concentration was optimized to 1000 cells/well in 100 μl medium (for 96-well plate) or 50 cells/well in 30 μl growth medium (for 384-well plate). Two types of plates were used in the screens: high-attachment conditions (Corning, 3704) and Ultra Low-attachment (Sumitomo, PrimeSurface384U). Cells were seeded automatically using the liquid rapid dispenser Metrix WellMate (Thermo). Two small molecule libraries (NIH Clinical Collection 1-2013 and Kinase Inhibitor Focused Library) were transferred to each microplate, at 100 nl drug per well, to final concentration of 30 μM or 10 μM, respectively, by using the robotic transfer system (Seiko Epson) and pin array (V&P). Controls were added by multichannel pipette. After 5 days of incubation at 37° C. in 5% CO2, the cells were assayed for ATP content. […] The secondary screen was conducted similarly, except that an HP D300 Digital Liquid Dispenser and T8 dispenseheads (HP) was used to add 4 different concentrations of small molecules to the cells.
Crosstalk corrected values from EnVision reader were used to normalize the luminescence from each wells.

For test [2], the system named is ascites-derived ovarian cancer cells from patients. Kind of test: Ex-vivo GILA drug sensitivity of patient-derived cancer cells. In kind it is cell-based, human. To be noted: for inhibitory activity in ex-vivo GILA assay: 5 patients who failed multiple lines of treatment, 5000 cells per well, 72 hours; for dose dependence of viability in ex-vivo GILA: ovary cancer patient derived cells. On the procedure:
Patient-derived ovarian cancer cells are sensitive to FDA-approved drugs identified in the GILA-based screen. […] Immediately after procurement, ascites samples were processed and 5000 cells per well were flow-sorted into 96-well microtiter plates with low or high-attachment surfaces containing 100 μl of growth medium per well.
Cell viability was measured with the CellTiter-Glo (Promega) luminescent assay, using the EnVision Plate Reader (PerkinElmer) or the SpectraMax M5 Multi-Mode Microplate Reader (Molecular Devices). For high-attachment growth, tissue culture-treated 96-well clear plates (#3997, Corning) were used, while for the GILA assay low attachment surface plates (#3474, Corning) of 96-well clear plates were used for 3 to 5 days. Later the cells were moved to 96-Well Solid White Polystyrene Microplate (#3362, 14 Corning) for reading luminescence signal. To avoid bleeding of luminescence between the wells, every other well left empty in the solid white microplate. 30 μl of CTG reagent was used for 384-well microplates, and 100 μl for 96-well microplates. The cells were moderately shaken for 5 minutes in the reagent, followed by incubation for 20 minutes to ensure cell lysis. No background signal was detected from wells containing only culture medium.
Under an institutional review board approved protocol, freshly discarded ascites from patients with advanced stage ovarian cancers was collected from 5 individuals. Ascites fluid was immediately transferred on ice for further processing. Samples were spun down and red blood cells were removed with hypotonic lysis using ACK lysing buffer (Life Technologies). Cells were filtered through a 40 μm mesh and washed in PBS with 2% FBS and subjected to staining for FACS.
Cells were prepared per standard protocols, stained with Calcein-AM, CD45-FITC, EPCAM-PE and CD24-PE/Cy7 and incubated for 20 minutes on ice. Cells were washed with […] prior to flow-sorting. After doublet discrimination and compensation for spectral overlap, single, viable cells, negative for CD45 and positive for EPCAM and CD24 were flow-sorted into wells (96 well plates) prepared with growth 15 medium. Samples were sorted on a BD FACSAria SORP and analyzed using BD FACSDiva Software (BD Biosciences).

For another test, the system named is IL-6. To be noted: Hong et al. 2012: LPS-stimulated mouse macrophages and TG-injected mice; cited from earlier work.
Where [3] appears, read: listed as Azelastine hydrochloride, hydrochloride.

Consider `Cc1cccc(-c2[nH]ncc2-c2ccc3ncccc3n2)n1` [RepSox], for which, in test [1], the “hit in GILA-based drug screen (inhibits growth in low attachment, less pronounced effect on high attachment)” value was “identified and validated in the drug screen”.

`CN1CCCC(n2nc(Cc3ccc(Cl)cc3)c3ccccc3c2=O)CC1` (stereo not drawn) [azelastine hydrochloride]: the “inhibitory activity in ex-vivo GILA assay” value was “highly effective at inhibiting growth” in test [2] (setting [3]) and “demonstrated inhibitory activity” in test [2] (listed as azelastine, hydrochloride). The “dose dependence of viability in ex-vivo GILA” value in test [2] (hydrochloride) was “dose dependent response”; in test [2] (setting [3]) it was “concentration-dependent viability”. Further, the “hit in GILA-based drug screen (inhibits growth in low attachment, less pronounced effect on high attachment)” value in test [1] is “identified and validated in the drug screen”.

Regarding `C=C1/C(=C\C=C2/CCC[C@]3(C)[C@@H]([C@H](C)/C=C/[C@@H](O)C4CC4)CC[C@@H]23)C[C@@H](O)C[C@@H]1O` [calcipotriol], in test [1], the “hit in GILA-based drug screen (inhibits growth in low attachment, less pronounced effect on high attachment)” value is recorded as “top hits”.

As for `CC(=O)Oc1ccccc1C(=O)Nc1ncc([N+](=O)[O-])s1` [nitazoxanide], the “inhibitory activity in ex-vivo GILA assay” value in test [2] is on record as “demonstrated inhibitory activity”. For the same compound, the IL-6 suppression entry in the test on IL-6 is “suppresses IL-6”. The “hit in GILA-based drug screen (inhibits growth in low attachment, less pronounced effect on high attachment)” value in test [1] was “top hits; also recorded: identified and validated in the drug screen”.

Consider `COc1ccc(-c2cc(=O)c3c(OC)c(OC)c(OC)c(OC)c3o2)cc1OC` [nobiletin], for which the “hit in GILA-based drug screen (inhibits growth in low attachment, less pronounced effect on high attachment)” value in test [1] was “identified and validated in the drug screen”.

`CC(C)CC(N(C)C)C1(c2ccc(Cl)cc2)CCC1` (stereo not drawn) [sibutramine]: the “hit in GILA-based drug screen (inhibits growth in low attachment, less pronounced effect on high attachment)” value in test [1] is on record as “top hits”.
